In US20200085791A1, “[(PHENYLSULFONYL)OCTAHYDRO-EPIMINOISOINDOL-YL](1H-1,2,3-TRIAZOL-5-YL)METHANONES” (Bayer Pharma Aktiengesellschaft, priority 2016, published 2020):

Target: T1, recombinant human AKR1C3 (Aldo-keto reductase family 1 member C3) (Homo sapiens, UniProt P42330)
T1 construct: GST (cleaved yes); made in house; host or cells: E. coli
T1 sequence (P42330 1-323): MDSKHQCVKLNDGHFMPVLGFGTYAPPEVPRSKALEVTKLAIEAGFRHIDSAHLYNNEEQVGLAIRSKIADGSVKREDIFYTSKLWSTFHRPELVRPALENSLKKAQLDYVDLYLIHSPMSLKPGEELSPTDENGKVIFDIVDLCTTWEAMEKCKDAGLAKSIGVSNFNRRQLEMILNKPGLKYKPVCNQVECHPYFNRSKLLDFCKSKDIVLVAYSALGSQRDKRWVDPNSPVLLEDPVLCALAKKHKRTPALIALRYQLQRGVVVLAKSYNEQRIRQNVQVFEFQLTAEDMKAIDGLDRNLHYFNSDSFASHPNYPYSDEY
Experiment: In Vitro Assay 1: AKR1C3-inhibitory activity (Coumberone to Coumberol fluorescence assay)
Assay type: biochemical
Conditions: recombinant enzyme, Coumberone 0.3 μM, NADPH 10 μM, 15 min pre-incubation, 4-parameter fit; average or median values
Experimental: In Vitro Assay 1: AKR1C3-Inhibitory Activity
The AKR1C3-inhibitory activity of the substances of the present invention was measured in the AKR1C3 assay described in the paragraphs below.
Essentially, the enzyme activity is measured by quantification of the Coumberol from Coumberone (Halim, M., Yee, D. J., and Sames, D., J. AM. CHEM. SOC. 130, 14123-14128 (2008) and Yee, D. J., Balsanek, V., Bauman, D. R., Penning, T. M., and Sames, D., Proc. Natl. Acad. Sci. USA 103, 13304-13309 (2006)). In this test, the increase of the highly fluorescent Coumberol by NADPH- (nicotinamide adenine dinucleotide phosphate)-dependent reduction of the non-fluorescent Coumberone by AKR1C3 can be determined.
The enzyme used was recombinant human AKR1C3 (Aldo-keto reductase family 1 member C3) (GenBank Accession No. NM_003739). This was expressed in E. coli as GST (glutathione S transferase) fusion protein and purified by glutathione Sepharose affinity chromatography. The GST was removed by digestion with thrombin and subsequent size exclusion chromatography (Dufort, I., Rheault, P., Huang, X F., Soucy, P., and Luu-The, V., Endocrinology 140, 568-574 (1999)).
For the assay, 50 nl of a 100-fold concentrated solution of the test substance in DMSO were pipetted into a black low-volume 384-well microtiter plate (Greiner Bio-One, Frickenhausen, Germany), 2.5 μl of a solution of AKR1C3 in assay buffer [50 mM potassium phosphate buffer pH 7, 1 mM DTT, 0.0022% (w/v) Pluronic F-127, 0.01% BSA (w/v) and protease inhibitor cocktail (Complete, EDTA-free Protease Inhibitor Cocktail from Roche)] were added and the mixture was incubated for 15 min to allow pre-binding of the substances to the enzyme prior to the enzyme reaction. The enzyme reaction was then started by addition of 2.5 μl of a solution of NADPH (20 μM→final concentration in 5 μl of assay volume is 10 μM) and Coumberone (0.6 μM→final concentration in 5 μl of assay volume is 0.3 μM) in assay buffer, and the resulting mixture was incubated at […] for the reaction time of typically 90 min. The concentration of the AKR1C3 and the reaction time was adapted to the respective activity of the enzyme preparation and adjusted such that the assay was carried out in the linear range.
Typical AKR1C3 concentrations were in the region of 1 nM. The reaction was stopped by addition of 2.5 μl of a stop solution consisting of the inhibitor EM-1404 [F. Labrie et al. U.S. Pat. No. 6,541,463, 2003] (3 μM→final concentration in 7.5 μl of assay volume is 1 μM). The fluorescence of the Coumberole was then measured at 520 nm (excitation at 380 nm) using a suitable measuring instrument (Pherastar from BMG Labtechnologies). The intensity of the fluorescence was used as a measure of the amount of Coumberole formed and thus of the enzyme activity of AKR1C3. The data were normalized (enzyme reaction without inhibitor—0% inhibition; all other assay components, but no enzyme=100% inhibition).

Structure (SMILES)	IC50 [nM]
Cc1cccc(S(=O)(=O)N2[C@@H]3CC[C@H]2[C@H]2CN(C(=O)c4cnn[nH]4)C[C@H]23)c1 [Example 23, {(3aR,4S,7R,7aS)-8-[(3-methylphenyl)sulfonyl]octahydro-2H-4,7-epiminoisoindol-2-yl}(1H-1,2,3-triazol-5-yl)methanone]	39
Cc1cc(C)cc(S(=O)(=O)N2[C@@H]3CC[C@H]2[C@H]2CN(C(=O)c4cnn[nH]4)C[C@H]23)c1 [Example 24, {(3aR,4S,7R,7aS)-8-[(3,5-dimethylphenyl)sulfonyl]octahydro-2H-4,7-epiminoisoindol-2-yl}(1H-1,2,3-triazol-5-yl)methanone]	66
O=C(c1cnn[nH]1)N1C[C@@H]2[C@H](C1)[C@@H]1CC[C@H]2N1S(=O)(=O)c1ccc(F)c(F)c1 [Example 25, {(3aR,4S,7R,7aS)-8-[(3,4-difluorophenyl)sulfonyl]octahydro-2H-4,7-epiminoisoindol-2-yl}(1H-1,2,3-triazol-5-yl)methanone]	132
N#Cc1cccc(S(=O)(=O)N2[C@@H]3CC[C@H]2[C@H]2CN(C(=O)c4cnn[nH]4)C[C@H]23)c1 [Example 26, 3-{[(3aR,4S,7R,7aS)-2-(1H-1,2,3-triazol-5-ylcarbonyl)octahydro-1H-4,7-epiminoisoindol-8-yl]sulfonyl}benzonitrile]	322
O=C(c1cnn[nH]1)N1[C@@H]2CC[C@H]1[C@H]1CN(S(=O)(=O)c3cccc(F)c3)C[C@H]12 [Example 27, {(3aR,4S,7R,7aS)-2-[(3-fluorophenyl)sulfonyl]octahydro-1H-4,7-epiminoisoindol-8-yl}(1H-1,2,3-triazol-5-yl)methanone]	2
O=C(c1cnn[nH]1)N1[C@@H]2CC[C@H]1[C@H]1CN(S(=O)(=O)c3cc(Cl)cc(Cl)c3)C[C@H]12 [Example 28, {(3aR,4S,7R,7aS)-2-[(3,5-dichlorophenyl)sulfonyl]octahydro-1H-4,7-epiminoisoindol-8-yl}(1H-1,2,3-triazol-5-yl)methanone]	21
O=C(c1cnn[nH]1)N1[C@@H]2CC[C@H]1[C@H]1CN(S(=O)(=O)c3ccccc3C(F)(F)F)C[C@H]12 [Example 29, 1H-1,2,3-triazol-5-yl[(3aR,4S,7R,7aS)-2-{[2-(trifluoromethyl)phenyl]sulfonyl}octahydro-1H-4,7-epiminoisoindol-8-yl]methanone]	9
O=C(c1cnn[nH]1)N1C[C@@H]2[C@H](C1)[C@H]1CC[C@@H]2N1S(=O)(=O)c1ccc(Br)cc1 [Example 30, ((3aR,4R,7S,7aS)-8-[(4-bromophenyl)sulfonyl]octahydro-2H-4,7-epiminoisoindol-2-yl)(1H-1,2,3-triazol-5-yl)methanone]	193
O=C(c1cnn[nH]1)N1C[C@@H]2[C@H](C1)[C@H]1CC[C@@H]2N1S(=O)(=O)c1ccc(Cl)cc1 [Example 31, {(3aR,4R,7S,7aS)-8-[(4-chorophenyl)sulfonyl]octahydro-2H-4,7-epiminoisoindol-2-yl}(1H-1,2,3-triazol-5-yl)methanone]	174
O=C(c1cnn[nH]1)N1C[C@@H]2[C@H](C1)[C@H]1CC[C@@H]2N1S(=O)(=O)c1ccc([N+](=O)[O-])cc1 [Example 32, {(3aR,4R,7S,7aS)-8-[(4-nitrophenyl)sulfonyl]octahydro-2H-4,7-epiminoisoindol-2-yl}(1H-1,2,3-triazol-5-yl)methanone]	420
O=C(c1cnn[nH]1)N1C[C@@H]2[C@H](C1)[C@H]1CC[C@@H]2N1S(=O)(=O)c1cccc([N+](=O)[O-])c1 [Example 33, {(3aR,4R,7S,7aS)-8-[(3-nitrophenyl)sulfonyl]octahydro-2H-4,7-epiminoisoindol-2-yl}(1H-1,2,3-triazol-5-yl)methanone]	174
Cc1cc(C)c(S(=O)(=O)N2[C@@H]3CC[C@H]2[C@@H]2CN(C(=O)c4cnn[nH]4)C[C@@H]23)c(C)c1 [Example 34, 1H-1,2,3-triazol-5-yl{(3aR,4R,7S,7aS)-8-[(2,4,6-trimethylphenyl)sulfonyl]octahydro-2H-4,7-epiminoisoindol-2-yl}methanone]	27
O=C(c1cnn[nH]1)N1C[C@@H]2[C@H](C1)[C@H]1CC[C@@H]2N1S(=O)(=O)c1ccccc1[N+](=O)[O-] [Example 35, {(3aR,4R,7S,7aS)-8-[(2-nitrophenyl)sulfonyl]octahydro-2H-4,7-epiminoisoindol-2-yl}(1H-1,2,3-triazol-5-yl)methanone]	4
COc1ccc(OC)c(S(=O)(=O)N2[C@@H]3CC[C@H]2[C@@H]2CN(C(=O)c4cnn[nH]4)C[C@@H]23)c1 [Example 36, {(3aR,4R,7S,7aS)-8-[(2,5-dimethoxyphenyl)sulfonyl]octahydro-2H-4,7-epiminoisoindol-2-yl}(1H-1,2,3-triazol-5-yl)methanone]	935
O=C(c1cnn[nH]1)N1C[C@@H]2[C@H](C1)[C@H]1CC[C@@H]2N1S(=O)(=O)c1ccc(Cl)c(Cl)c1 [Example 37, {(3aR,4R,7S,7aS)-8-[(3,4-dichlorophenyl)sulfonyl]octahydro-2H-4,7-epiminoisoindol-2-yl}(1H-1,2,3-triazol-5-yl)methanone]	82
CCc1ccc(S(=O)(=O)N2[C@@H]3CC[C@H]2[C@@H]2CN(C(=O)c4cnn[nH]4)C[C@@H]23)cc1 [Example 38, {(3aR,4R,7S,7aS)-8-[(4-ethylphenyl)sulfonyl]octahydro-2H-4,7-epiminoisoindol-2-yl}(1H-1,2,3-triazol-5-yl)methanone]	193
O=C(c1cnn[nH]1)N1C[C@@H]2[C@H](C1)[C@H]1CC[C@@H]2N1S(=O)(=O)c1ccc(F)cc1Cl [Example 39, {(3aR,4R,7S,7aS)-8-[(2-chloro-4-fluorophenyl)sulfonyl]octahydro-2H-4,7-epiminoisoindol-2-yl}(1H-1,2,3-triazol-5-yl)methanone]	4
Cc1cccc(Cl)c1S(=O)(=O)N1[C@@H]2CC[C@H]1[C@@H]1CN(C(=O)c3cnn[nH]3)C[C@@H]12 [Example 40, {(3aR,4R,7S,7aS)-8-[(2-chloro-6-methylphenyl)sulfonyl]octahydro-2H-4,7-epiminoisoindol-2-yl}(1H-1,2,3-triazol-5-yl)methanone]	3
COc1ccc(S(=O)(=O)N2[C@@H]3CC[C@H]2[C@@H]2CN(C(=O)c4cnn[nH]4)C[C@@H]23)cc1OC [Example 41, {(3aR,4R,7S,7aS)-8-[(3,4-dimethoxyphenyl)sulfonyl]octahydro-2H-4,7-epiminoisoindol-2-yl}(1H-1,2,3-triazol-5-yl)methanone]	731
O=C(c1cnn[nH]1)N1C[C@@H]2[C@H](C1)[C@H]1CC[C@@H]2N1S(=O)(=O)c1cccc(Cl)c1Cl [Example 42, {(3aR,4R,7S,7aS)-8-[(2,3-dichlorophenyl)sulfonyl]octahydro-2H-4,7-epiminoisoindol-2-yl}(1H-1,2,3-triazol-5-yl)methanone]	7
N#Cc1ccc(S(=O)(=O)N2[C@@H]3CC[C@H]2[C@@H]2CN(C(=O)c4cnn[nH]4)C[C@@H]23)cc1 [Example 43, 4-{[(3aR,4R,7S,7aS)-2-(1H-1,2,3-triazol-5-ylcarbonyl)octahydro-1H-4,7-epiminoisoindol-8-yl]sulfonyl}benzonitrile]	855
N#Cc1ccccc1S(=O)(=O)N1[C@@H]2CC[C@H]1[C@@H]1CN(C(=O)c3cnn[nH]3)C[C@@H]12 [Example 44, 2-{[(3aR,4R,7S,7aS)-2-(1H-1,2,3-triazol-5-ylcarbonyl)octahydro-1H-4,7-epiminoisoindol-8-yl]sulfonyl}benzonitrile]	58
